Among the data in patent publication US9051290B2, “Biaryl phosphodiesterase inhibitors” (LEO PHARMA A/S, priority 2010, dated 2015) are IC50 values, retold here.

Some results are limits rather than exact numbers.

In this test the target is Human recombinant PDE4 (Genbank accession no NM—006203) (Homo sapiens, UniProt Q08499). In words: PDE4 assay (SPA, cleavage of cAMP). In kind it is biochemical. To be noted: 1 hour incubation, test compound up to 10 μM, cAMP 1×10^−5M, read-out: PDE4 IC50 range. The method, then: Human recombinant PDE4 (Genbank accession no NM_006203) was incubated for 1 hour with the test compound at concentrations up to 10 μM, with cAMP (1×10^−5M), and with a low amount (0.021 MBq) of radioactively labelled cAMP. At the end of the incubation, the cleavage of the substrate was evaluated by the binding of the AMP product to SPA beads, which generate chemoluminescence when bound to the radioactive tracer. The AMP product inhibited the binding of the radioactive tracer to the beads, and the luminescent signal was competed.
Sequence of Human recombinant PDE4 (Genbank accession no NM—006203) (Q08499 1-673 isoform Q08499-2): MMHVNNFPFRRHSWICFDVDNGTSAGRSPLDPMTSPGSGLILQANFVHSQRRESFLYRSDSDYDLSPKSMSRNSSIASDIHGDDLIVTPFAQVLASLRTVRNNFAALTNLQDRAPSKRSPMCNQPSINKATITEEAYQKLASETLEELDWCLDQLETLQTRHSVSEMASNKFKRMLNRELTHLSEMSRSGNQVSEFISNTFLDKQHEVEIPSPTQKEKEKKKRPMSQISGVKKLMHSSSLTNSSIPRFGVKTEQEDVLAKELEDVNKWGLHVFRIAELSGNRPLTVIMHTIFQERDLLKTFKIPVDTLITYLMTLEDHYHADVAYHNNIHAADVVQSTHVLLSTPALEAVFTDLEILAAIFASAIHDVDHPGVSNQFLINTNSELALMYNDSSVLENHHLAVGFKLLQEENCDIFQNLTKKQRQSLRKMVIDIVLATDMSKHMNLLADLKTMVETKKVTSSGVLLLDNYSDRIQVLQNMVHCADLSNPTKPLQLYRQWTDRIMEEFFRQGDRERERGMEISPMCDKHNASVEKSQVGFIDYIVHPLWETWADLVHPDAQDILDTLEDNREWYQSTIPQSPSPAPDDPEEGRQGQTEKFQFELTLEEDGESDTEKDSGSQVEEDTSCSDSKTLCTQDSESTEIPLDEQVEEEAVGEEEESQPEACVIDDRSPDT
The results were calculated as the molar concentrations resulting in 50% inhibition of the substrate cleavage compared to controls samples, and are expressed as a range of IC50 (M).
The compounds of the present invention were tested in the PDE4 assay.
Consider `COc1ccc(-c2cccc3c2CCC3=O)c(OCCC(C)C)c1OC` [Compound 101, 4-[3,4-Dimethoxy-2-(3-methyl-butoxy)-phenyl]-indan-1-one], for which the IC50 (usually the concentration that gives 50% inhibition) was below 100 nM.

On to `COc1ccc(-c2cccc3c2CCC3=O)c(OCC2CCC2)c1OC` [Compound 102, 4-(2-Cyclobutylmethoxy-3,4-dimethoxy-phenyl)-indan-1-one], for which the IC50 is below 100 nM. Next, `COc1ccc(-c2cccc3c2CCC3=O)c(OCc2ccc(S(C)(=O)=O)cc2)c1OC` [Compound 103, 4-[2-(4-Methanesulfonyl-benzyloxy)-3,4-dimethoxy-phenyl]-indan-1-one]: below 100 nM; `COc1ccc(-c2cccc3c2CCC3=O)c(OCC2(CO)COC2)c1OC` [Compound 104, 4-[2-(3-Hydroxymethyl-oxetan-3-ylmethoxy)-3,4-dimethoxy-phenyl]-indan-1-one]: below 100 nM; `COc1ccc(-c2cccc3c2CCC3=O)c(OCCC(C)(C)C)c1OC` [Compound 105, 4-[2-(3,3-Dimethyl-butoxy)-3,4-dimethoxy-phenyl]-indan-1-one]: below 100 nM. Take `COc1ccc(-c2cccc3c2CCC3=O)c(OCc2ccc(C(N)=O)cc2)c1OC` [Compound 106, 4-[2,3-Dimethoxy-6-(1-oxo-indan-4-yl)-phenoxymethyl]-benzamide]: the IC50 is below 100 nM. For the compound `COc1ccc(-c2cccc3c2CCC3=O)c(OCC(C)(C)CO)c1OC` [Compound 107, 4-[2-(3-Hydroxy-2,2-dimethyl-propoxy)-3,4-dimethoxy-phenyl]-indan-1-one], the IC50 was below 100 nM. With `CNC(=O)c1ccc(COc2c(-c3cccc4c3CCC4=O)ccc(OC)c2OC)cc1` [Compound 108, 4-[2,3-Dimethoxy-6-(1-oxo-indan-4-yl)-phenoxymethyl]-N-methyl-benzamide], the IC50 was below 100 nM. Next, `COc1ccc(-c2cccc3c2CCC3=O)c(OCc2ccc(C(=O)N(C)C)cc2)c1OC` [Compound 109, 4-[2,3-Dimethoxy-6-(1-oxo-indan-4-yl)-phenoxymethyl]-N,N-dimethyl-benzamide]: below 100 nM; `COc1ccc(-c2cccc3c2CCC3=O)c(OCc2cccc(C(=O)N(C)C)c2)c1OC` [Compound 110, 3-[2,3-Dimethoxy-6-(1-oxo-indan-4-yl)-phenoxymethyl]-N,N-dimethyl-benzamide]: below 100 nM; `COc1ccc(-c2cccc3c2CCC3=O)c(OCc2cccc(S(=O)(=O)N(C)C)c2)c1OC` [Compound 111, 3-[2,3-Dimethoxy-6-(1-oxo-indan-4-yl)-phenoxymethyl]-N,N-dimethyl-benzenesulfonamide]: below 100 nM. Next, `COc1ccc(-c2cccc3c2CCC3=O)c(OCc2ccc(S(N)(=O)=O)cc2)c1OC` [Compound 112, 4-[2,3-Dimethoxy-6-(1-oxo-indan-4-yl)-phenoxymethyl]-benzenesulfonamide]: below 100 nM. Next, `COc1ccc(-c2cccc3c2CCC3=O)c(OCc2cccc(S(C)(=O)=O)c2)c1OC` [Compound 113, 4-[2-(3-Methanesulfonyl-benzyloxy)-3,4-dimethoxy-phenyl]-indan-1-one]: below 100 nM. Regarding `COc1ccc(-c2cccc3c2CCC3=O)c(OCc2cccc(C(N)=O)c2)c1OC` [Compound 114, 3-[2,3-Dimethoxy-6-(1-oxo-indan-4-yl)-phenoxymethyl]-benzamide], the IC50 was below 100 nM. The figure for `COc1ccc(-c2cccc3c2COC3=O)c(OCc2ccc(S(C)(=O)=O)cc2)c1OC` [Compound 115, 4-[2-(4-Methanesulfonyl-benzyloxy)-3,4-dimethoxy-phenyl]-3H-isobenzofuran-1-one] is below 100 nM. Next, `COc1ccc(-c2cccc3c2COC3=O)c(OCc2ccc(C(N)=O)cc2)c1OC` [Compound 116, 4-[2,3-Dimethoxy-6-(1-oxo-1,3-dihydro-isobenzofuran-4-yl)-phenoxymethyl]-benzamide]: below 100 nM; `CNC(=O)c1ccc(COc2c(-c3cccc4c3COC4=O)ccc(OC)c2OC)cc1` [Compound 117, 4-[2,3-Dimethoxy-6-(1-oxo-1,3-dihydro-isobenzofuran-4-yl)-phenoxymethyl]-N-methyl-benzamide]: below 100 nM; `COc1ccc(-c2cccc3c2COC3=O)c(OCc2ccc(C(=O)N(C)C)cc2)c1OC` [Compound 118, 4-[2,3-Dimethoxy-6-(1-oxo-1,3-dihydro-isobenzofuran-4-yl)-phenoxymethyl]-N,N-dimethyl-benzamide]: below 100 nM. The figure for `COc1ccc(-c2cccc3c2COC3=O)c(OCC2(CO)COC2)c1OC` [Compound 119, 4-[2-(3-Hydroxymethyl-oxetan-3-ylmethoxy)-3,4-dimethoxy-phenyl]-3H-isobenzofuran-1-one] is 100 to 500 nM; for `COc1ccc(-c2ccc3c(c2)CCC3=O)c(OCCC(C)C)c1OC` [Compound 120, 5-[3,4-Dimethoxy-2-(3-methyl-butoxy)-phenyl]-indan-1-one] it is below 100 nM. Take `COc1ccc(-c2ccc3c(c2)CCC3=O)c(OCC(C)(C)C)c1OC` [Compound 121, 5-[2-(2,2-Dimethyl-propoxy)-3,4-dimethoxy-phenyl]-indan-1-one]: the IC50 is below 100 nM. Next, `COc1ccc(-c2ccc3c(c2)CCC3=O)c(OCC2CCC2)c1OC` [Compound 122, 5-(2-Cyclobutylmethoxy-3,4-dimethoxy-phenyl)-indan-1-one]: below 100 nM.

Consider `COc1ccc(-c2ccc3c(c2)CCC3=O)c(OCCC(C)(C)C)c1OC` [Compound 123, 5-[2-(3,3-Dimethyl-butoxy)-3,4-dimethoxy-phenyl]-indan-1-one], for which the IC50 is below 100 nM.

`COc1ccc(-c2ccc3c(c2)CCC3=O)c(OCc2ccc(C(N)=O)cc2)c1OC` [Compound 124, 4-[2,3-Dimethoxy-6-(1-oxo-indan-5-yl)-phenoxymethyl]-benzamide]: the IC50 was below 100 nM.

Turning to `COc1ccc(-c2ccc3c(c2)CCC3=O)c(OCC(C)(C)CO)c1OC` [Compound 125, 5-[2-(3-Hydroxy-2,2-dimethyl-propoxy)-3,4-dimethoxy-phenyl]-indan-1-one], the IC50 was below 100 nM. Next, `CNC(=O)c1ccc(COc2c(-c3ccc4c(c3)CCC4=O)ccc(OC)c2OC)cc1` [Compound 126, 4-[2,3-Dimethoxy-6-(1-oxo-indan-5-yl)-phenoxymethyl]-N-methyl-benzamide]: below 100 nM; `COc1ccc(-c2ccc3c(c2)CCC3=O)c(OCc2ccc(C(=O)N(C)C)cc2)c1OC` [Compound 127, 4-[2,3-Dimethoxy-6-(1-oxo-indan-5-yl)-phenoxymethyl]-N,N-dimethyl-benzamide]: below 100 nM. Next, `COc1ccc(-c2ccc3c(c2)CCC3=O)c(OCc2cccc(C(=O)N(C)C)c2)c1OC` [Compound 128, 3-[2,3-Dimethoxy-6-(1-oxo-indan-5-yl)-phenoxymethyl]-N,N-dimethyl-benzamide]: below 100 nM; `COc1ccc(-c2ccc3c(c2)CCC3=O)c(OCC2(CO)COC2)c1OC` [Compound 129, 5-[2-(3-Hydroxymethyl-oxetan-3-ylmethoxy)-3,4-dimethoxy-phenyl]-indan-1-one]: 100 to 500 nM. Next, `COc1ccc(-c2ccc3c(c2)CCC3=O)c(OCc2ccc(S(C)(=O)=O)cc2)c1OC` [Compound 130, 5-[2-(4-Methanesulfonyl-benzyloxy)-3,4-dimethoxy-phenyl]-indan-1-one]: below 100 nM; `COc1ccc(-c2ccc3c(c2)COC3=O)c(OCCC(C)C)c1OC` [Compound 131, 5-[3,4-Dimethoxy-2-(3-methyl-butoxy)-phenyl]-3H-isobenzofuran-1-one]: below 100 nM.

Regarding `COc1ccc(-c2ccc3c(c2)COC3=O)c(OCC(C)(C)C)c1OC` [Compound 132, 5-[2-(2,2-Dimethyl-propoxy)-3,4-dimethoxy-phenyl]-3H-isobenzofuran-1-one], the IC50 is below 100 nM.

For the compound `COc1ccc(-c2ccc3c(c2)COC3=O)c(OCC2CCC2)c1OC` [Compound 133, 5-(2-Cyclobutylmethoxy-3,4-dimethoxy-phenyl)-3H-isobenzofuran-1-one], the IC50 is below 100 nM. Next, `COc1ccc(-c2ccc3c(c2)COC3=O)c(OCC2(CO)COC2)c1OC` [Compound 134, 5-[2-(3-Hydroxymethyl-oxetan-3-ylmethoxy)-3,4-dimethoxy-phenyl]-3H-isobenzofuran-1-one]: below 100 nM; `COc1ccc(-c2ccc3c(c2)COC3=O)c(OCCC(C)(C)C)c1OC` [Compound 135, 5-[2-(3,3-Dimethyl-butoxy)-3,4-dimethoxy-phenyl]-3H-isobenzofuran-1-one]: below 100 nM. Next, `COc1ccc(-c2ccc3c(c2)COC3=O)c(OCc2ccc(C(N)=O)cc2)c1OC` [Compound 136, 4-[2,3-Dimethoxy-6-(1-oxo-1,3-dihydro-isobenzofuran-5-yl)-phenoxymethyl]-benzamide]: below 100 nM. The figure for `COc1ccc(-c2ccc3c(c2)COC3=O)c(OCC(C)(C)CO)c1OC` [Compound 137, 5-[2(3-Hydroxy-2,2-dimethyl-propoxy)-3,4-dimethoxy-phenyl]-3H-isobenzofuran-1-one] is below 100 nM; for `CNC(=O)c1ccc(COc2c(-c3ccc4c(c3)COC4=O)ccc(OC)c2OC)cc1` [Compound 138, 4-[2,3-Dimethoxy-6-(1-oxo-1,3-dihydro-isobenzofuran-5-yl)-phenoxymethyl]-N-methyl-benzamide] it is below 100 nM; for `COc1ccc(-c2ccc3c(c2)COC3=O)c(OCc2ccc(C(=O)N(C)C)cc2)c1OC` [Compound 139, 4-[2,3-Dimethoxy-6-(1-oxo-1,3-dihydro-isobenzofuran-5-yl)-phenoxymethyl]-N,N-dimethyl-benzamide] it is below 100 nM.
